Laboratory results from ChEMBL document CHEMBL1144358, “LEA3D: a computer-aided ligand design for structure-based drug design” (J Med Chem, 2005).

Each compound was assayed against T1, Thymidylate kinase (Mycobacterium tuberculosis, UniProt P9WKE1) (assay: Binding affinity towards mycobacterium tuberculosis thymidine monophosphate kinase; NI=No inhibition).
T1 sequence (P9WKE1 whole entry): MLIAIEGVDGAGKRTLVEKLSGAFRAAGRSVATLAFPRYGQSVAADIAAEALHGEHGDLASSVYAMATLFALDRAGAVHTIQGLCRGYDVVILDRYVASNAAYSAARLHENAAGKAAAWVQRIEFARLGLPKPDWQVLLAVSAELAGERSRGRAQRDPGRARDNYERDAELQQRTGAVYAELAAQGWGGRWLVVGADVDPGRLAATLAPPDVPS

**Q.** For Cc1cn(Cc2ccc(/C=C/C(=O)O)cc2)c(=O)[nH]c1=O, which Ki is on record?
**A.** Not Active

**Q.** Which Ki does the source give for O=c1[nH]c(=O)n(Cc2ccccc2)cc1F here?
**A.** Not Active

**Q.** How did the Ki turn out when Cc1cn(Cc2ccc(CCC#N)cc2)c(=O)[nH]c1=O was run?
**A.** Not Active

**Q.** Which Ki does the source give for Cc1cn(Cc2ccc(/C=C/C#N)cc2)c(=O)[nH]c1=O here?
**A.** Not Active

**Q.** With CCOC(=O)/C=C/c1ccc(Cn2cc(C)c(=O)[nH]c2=O)cc1 as the compound, how does the Ki read?
**A.** Not Active

These compounds were tested against T1, Thymidylate kinase (assay: Binding affinity towards mycobacterium tuberculosis thymidine monophosphate kinase).

**Q.** For O=C(O)CCCc1ccc(Cn2cc(Br)c(=O)[nH]c2=O)cc1, which Ki is on record?
**A.** 12.3 µM
